Laboratory results taken from ChEMBL document CHEMBL1127874, “Development of tetrazole bioisosteres in angiotensin II antagonists” (Bioorg Med Chem Lett, 1994).

What was measured:
[1] = biological target: T1, Angiotensin II receptor (AT-1) type-1 (Rattus norvegicus, UniProt P29089+P25095); assay: Binding affinity towards Angiotensin II receptor, type 1 in rat liver membrane using [125I]-angiotensin II (0.1 nM); assay type: cell membranes
T1 sequence (P29089 whole entry): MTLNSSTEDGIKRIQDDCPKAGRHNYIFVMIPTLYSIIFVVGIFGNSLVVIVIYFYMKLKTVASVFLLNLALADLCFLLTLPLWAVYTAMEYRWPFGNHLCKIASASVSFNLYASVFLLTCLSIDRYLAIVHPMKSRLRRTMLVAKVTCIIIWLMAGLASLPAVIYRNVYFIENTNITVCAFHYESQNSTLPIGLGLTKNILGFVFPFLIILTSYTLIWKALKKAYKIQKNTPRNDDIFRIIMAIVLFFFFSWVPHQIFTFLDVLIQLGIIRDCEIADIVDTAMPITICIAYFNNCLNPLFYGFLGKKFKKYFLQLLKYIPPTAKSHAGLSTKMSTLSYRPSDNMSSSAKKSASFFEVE
T1 sequence (P25095 whole entry): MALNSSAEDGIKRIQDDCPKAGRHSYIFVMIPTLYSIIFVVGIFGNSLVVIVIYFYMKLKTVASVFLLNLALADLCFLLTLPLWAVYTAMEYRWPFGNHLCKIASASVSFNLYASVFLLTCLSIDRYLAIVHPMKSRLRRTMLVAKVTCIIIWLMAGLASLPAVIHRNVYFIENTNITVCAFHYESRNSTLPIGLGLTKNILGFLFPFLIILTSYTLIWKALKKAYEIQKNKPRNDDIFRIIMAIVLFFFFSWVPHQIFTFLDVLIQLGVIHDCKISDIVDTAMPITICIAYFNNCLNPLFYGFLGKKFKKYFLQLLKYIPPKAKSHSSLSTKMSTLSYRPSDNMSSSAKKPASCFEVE

Oryctolagus cuniculus = organism: Oryctolagus cuniculus; assay: Inhibitory activity against contractile response to angiotensin II (10 nM) of rabbit aortic rings; assay type: functional; conditions: Aorta

`CCCCC1=NC2(CCCC2)C(=O)N1Cc1ccc(-c2ccccc2-c2nc(=O)[nH]o2)cc1` showed an IC50 [1] of 230 nM.

`CCCCC1=NC2(CCCC2)C(=O)N1Cc1ccc(-c2ccccc2-n2oc(=O)[nH]c2=O)cc1` showed an IC50 [1] of 1.4 nM and an IC50 (Oryctolagus cuniculus) of 2.8 nM.

For `CCCCC1=NC2(CCCC2)C(=O)N1Cc1ccc(-c2ccccc2C2=NOC(=O)C2)cc1`, the IC50 [1] was 25 nM and the IC50 (Oryctolagus cuniculus) was 140 nM.

In the case of `CCCCC1=NC2(CCCC2)C(=O)N1Cc1ccc(-c2ccccc2-c2noc(O)n2)cc1`, the IC50 [1] is reported as 1.7 nM and the IC50 (Oryctolagus cuniculus) is reported as 2.6 nM.

`CCCCC1=NC2(CCCC2)C(=O)N1Cc1ccc(-c2ccccc2-c2nnn[nH]2)cc1` [IRBESARTAN] showed an IC50 [1] of 1.3 nM.

In the case of `CCCCC1=NC2(CCCC2)C(=O)N1Cc1ccc(-c2ccccc2-c2nnc(O)o2)cc1`, the IC50 [1] is reported as 60 nM and the IC50 (Oryctolagus cuniculus) is reported as 67 nM.

Work on `CCCCC1=NC(C)(C2CCCCC2)C(=O)N1Cc1ccc(-c2ccccc2-c2n[nH]c(O)n2)cc1` (stereo not drawn) yielded an IC50 [1] of 100 nM.

In the case of `CCCCC1=NC(C)(C2CCCCC2)C(=O)N1Cc1ccc(-c2ccccc2-c2noc(O)n2)cc1` (stereo not drawn), the IC50 [1] is reported as 0.7 nM and the IC50 (Oryctolagus cuniculus) is reported as 0.64 nM.
